Results from ChEMBL document CHEMBL5104145, “Synthesis of antiplasmodial 2-aminothieno[3,2-d]pyrimidin-4(3H)-one analogues using the scaffold hopping strategy” (Eur J Med Chem, 2022).
In brackets after ≈: the same amount, converted by molar mass.

Tests used:
[1] = Permeability of compound at 100 uM at pH 5 incubated for 4 hrs by PAMPA-GIT assay; format: ADME; conditions: read-out: permeability
[2] = Permeability of compound at 100 uM at pH 6 incubated for 4 hrs by PAMPA-GIT assay; format: ADME; conditions: read-out: permeability
[3] = Permeability of compound at 100 uM at pH 7.4 incubated for 4 hrs by PAMPA-GIT assay; format: ADME; conditions: read-out: permeability
[4] = Thermodynamic solubility of compound at pH 7.4 incubated for 24 hrs by shake-flask method; format: physicochemical; conditions: buffer, read-out: Therm_solubility
Plasmodium falciparum [5] = test: Antiplasmodial activity against Plasmodium falciparum K1 assessed as reduction in parasite growth; format: functional, organism-based
Plasmodium falciparum [6] = test: Antiplasmodial activity against chloroquine,pyrimethamine and proguanil resistant blood stage Plasmodium falciparum K1 assessed as reduction in parasite growth incubated for 72 hrs by SYBR Green I fluorescence-based method; format: functional, organism-based
[7] = (§1) Cytotoxicity against human HepG2 cells assessed as reduction in cell viability incubated for 72 hrs by MTT assay; format: toxicity, cell-based; conditions: HepG2 cells
[8] = Selectivity index, ratio of CC50 for cytotoxicity against human HepG2 cells to EC50 for antiplasmodial activity against chloroquine,pyrimethamine and proguanil resistant blood stage Plasmodium falciparum K1; format: toxicity, cell-based; conditions: for selectivity ratio: HepG2 cells, read-out: Ratio CC50/EC50
[9] = Solubility of compound in culture media; format: physicochemical
HepG2 = test: as §1; format: toxicity, cell-based; conditions: hepg2, 72 h, 72 h
[10] = Plasmodium falciparum, K1, 72 h

Structure (SMILES)	CC50 at 72 h [7] [µM]	EC50 (Plasmodium falciparum [6]; [10]) [µM]	selectivity ratio [8]	further results
Cc1ccc(-c2cc3nc(NC(C)(C)C)[nH]c(=O)c3s2)cc1	–	–	–	Papp at 4 h, 100 µM [1]: 41.8 nm/s; Papp at 4 h, 100 µM [2]: 18.6 nm/s; Papp at 4 h, 100 µM [3]: 20.5 nm/s; solubility thermodynamic at 24 h [4]: 1.56 µM (≈ 0.489 µg/mL)
Cc1ccc(-c2ccc3nc(NC(C)(C)C)[nH]c(=O)c3c2)cc1	–	–	–	EC50 (Plasmodium falciparum [5]): > 5 µM
Cc1ccc(-c2ccc3c(=O)[nH]c(NC(C)(C)C)nc3c2)cc1	–	–	–	EC50 (Plasmodium falciparum [5]): > 5 µM
Cc1ccc(-c2cc3nc(NC(C)(C)C)[nH]c(=O)c3s2)cc1.Cl	–	–	–	Papp at 4 h, 100 µM [3]: 4.6 nm/s; solubility thermodynamic at 24 h [4]: 7.92 µM
Cc1ccc(-c2cc3nc(NC(C)(C)C)[nH]c(=O)c3o2)cc1	10.9	–	–	EC50 (Plasmodium falciparum [6]): 0.8 µM; Ratio CC50/EC50 [8]: 13.6
CC(C)(C)Nc1nc2cc(-c3ccc(F)cc3)oc2c(=O)[nH]1	> 3.12	2.9	> 1.1	solubility [9]: Insoluble
CC(C)(C)Nc1nc2sc(-c3ccccc3)cc2c(=O)[nH]1	> 12.5	33.8	> 0.4	–
Cc1ccc(-c2cc3nc(NC(C)C)[nH]c(=O)c3o2)cc1	20.4	0.09	227	Papp at 4 h, 100 µM [1]: 411 nm/s; Papp at 4 h, 100 µM [2]: 643 nm/s; Papp at 4 h, 100 µM [3]: 769 nm/s; solubility thermodynamic at 24 h [4]: 11.5 µM (≈ 3.26 µg/mL)
Cc1ccc(-c2cc3nc(NC(C)C)[nH]c(=O)c3[se]2)cc1	–	0.8	–	CC50 (HepG2): > 25 µM; Ratio CC50/EC50 [8]: > 31.3
Cc1ccc(-c2nc3nc(NC(C)(C)C)[nH]c(=O)c3s2)cc1	> 5	4.6	> 1.1	–
Cc1ccc(-c2cc3nc(NC(C)(C)C)[nH]c(=O)c3[se]2)cc1	–	–	–	EC50 (Plasmodium falciparum [6]): 1.3 µM; CC50 (HepG2): > 7.8 µM; Ratio CC50/EC50 [8]: > 6
Cc1ccc(-c2cc3nc(NC(C)(C)C)[nH]c(=O)c3[se]2)cc1.Cl	–	–	–	EC50 (Plasmodium falciparum [6]): 0.13 µM; CC50 (HepG2): > 3.12 µM; Ratio CC50/EC50 [8]: > 24
Cc1c(-c2ccc(F)cc2)sc2c(=O)[nH]c(NC(C)C)nc12	19.7	4.3	4.6	–
CC(C)(C)Nc1nc2sc(-c3ccc(Cl)cc3)cc2c(=O)[nH]1	21.4	> 50	< 0.4	–
CC(C)(C)Nc1nc2nc(-c3ccc(Cl)cc3)sc2c(=O)[nH]1	–	–	–	solubility [9]: Insoluble
Cc1ccc(-c2cc3nc(NC(C)(C)C)[nH]c(=O)c3o2)cc1.Cl	–	–	–	EC50 (Plasmodium falciparum [6]): 0.3 µM; CC50 (HepG2): 21.7 µM; Ratio CC50/EC50 [8]: 72.3
CC(C)(C)Nc1nc2cc(-c3ccc(Cl)cc3)oc2c(=O)[nH]1	> 6.25	0.4	> 15.6	solubility [9]: Insoluble
Cc1ccc(-c2cc3nc(NC(C)C)[nH]c(=O)c3[se]2)cc1.Cl	–	–	–	EC50 (Plasmodium falciparum [6]): 0.77 µM; CC50 (HepG2): > 10 µM; Ratio CC50/EC50 [8]: > 13
CC(C)(C)Nc1nc2nc(-c3ccc(F)cc3)sc2c(=O)[nH]1	–	–	–	solubility [9]: Insoluble
CC(C)(C)Nc1nc2sc(-c3ccc(F)cc3)cc2c(=O)[nH]1	> 25	> 12.5	–	–
Cc1ccc(-c2cc3c(=O)[nH]c(NC(C)(C)C)nc3s2)cc1	20.5	32.4	0.6	–
CC(C)(C)Nc1nc2nc(-c3ccccc3)sc2c(=O)[nH]1	> 25	> 12.5	–	–
CCOC(=O)c1[nH]c(-c2ccc(C)cc2)c2c(=O)[nH]c(NC(C)(C)C)nc12	7.4	17.1	0.4	–
Cc1c(-c2ccc(Cl)cc2)sc2c(=O)[nH]c(NC(C)C)nc12	> 25	4.4	> 5.7	–
